{"source": "paper PMC8037910", "about": "“Effect of Chronic Administration of 5-(3-chlorophenyl)-4-Hexyl-2,4 -Dihydro-3H-1,2,4-Triazole-3-Thione (TP-315)—A New Anticonvulsant Drug Candidate—On Living Organisms” (International Journal of Molecular Sciences, 2021)", "key": {"[1]": {"assay": "PAMPA BBB (parallel artificial membrane permeability assay)", "assay_type": "in vitro ADME", "conditions": "pH 7.4, 37 °C, donor 20 µg/mL, read-out: Permeability Coefficients (Pe × 10−6) ± SD", "description": "BBB permeability of the compounds was investigated by using a PAMPA method (parallel artificial membrane permeability assay). The PAMPA system consisted of a 96-well microfilter plate and a 96-well filter plate and was divided into two chambers: a donor at the bottom and an acceptor at the top, separated by a 120-μm-thick microfilter disc coated with BBB lipid solution (Pion, Inc.). The solutions of each compound were prepared in dimethyl sulfoxide (DMSO) at 4 mg/mL concentration and then diluted with Prisma buffer (pH = 7.4) to obtain the donor drug solution with the final nominal concentration of 20 µg/mL. The donor solutions were placed on the donor plate. Acceptor plate contained Brain Sink Buffer (BSB). The plates were put together and incubated at 37 °C for 180 min in a humidity-saturated atmosphere. The concentrations of the compounds were determined with a UV-reader (Multiskan GO, Thermo Scientific) at 254 nm in the donor and acceptor compartments.\nThe permeability values (Pe) were calculated by using the following equation:(1) −ln(1−CA/Cequilibrium)/S×(1/VD+1/VA)×t where VD: donor volume, VA: acceptor volume, Cequilibrium: equilibrium concentration Cequilibrium=CD×VD+ CA×VA/VD+VA, CD: donor concentration, CA: acceptor concentration, S: membrane area, and t: incubation time (in seconds). High BBB permeation (CNS+) was expected for compounds with Pe > 5.19, whereas low BBB permeation (CNS-) was expected for compounds with Pe < 2.07 [21]."}, "[2]": {"test_system": "maximal electroshock-induced seizure (MES)", "design": "method as in PMID 23291122, PMID 25226229, PMID 25090118", "conditions": "mice, cited from earlier work"}, "[3]": {"test_system": "6 Hz psychomotor seizure model", "design": "method as in PMID 32253957", "conditions": "mice, cited from earlier work"}, "[4]": {"test_system": "mice", "design": "method as in PMID 23291122, PMID 25226229, PMID 25090118; unit not given here", "conditions": "chimney test, cited from earlier work"}, "[5]": {"molecular_target": "batrachotoxin-binding site on voltage-gated sodium channels", "design": "method as in PMID 25226229, PMID 30594731, PMID 28824309", "conditions": "read-out: Affinity towards Batrachotoxin-Binding Site on Sodium Channels IC50 ± SEM; cited from earlier work"}, "[6]": {"test_system": "mice", "design": "method as in PMID 23291122, PMID 25226229, PMID 25090118", "conditions": "rotarod test (†), the values are: TD50, cited from earlier work"}}, "note": "Where two headings read alike, the source gives them in different places."}
{"compound": "Cc1ccc(-n2c(-c3cccc(Cl)c3)n[nH]c2=S)cc1", "note": "[TP-10, 5-(3-Chlorophenyl)-4-(4-methylphenyl)-2,4-dihydro-3H-1,2,4-triazole-3-thione]", "values": [{"measurement": "Papp at 180 min, 20 µg/mL", "setting": "[1]", "value": "40.2 ± 5.1", "unit": "×10⁻⁶ cm/s"}, {"measurement": "Anticonvulsant Activity in MES Test ED50 ± S.E.", "setting": "[2]; pretreatment time 15 min", "value": "57.0 ± 9.4", "unit": "mg/kg"}, {"measurement": "Anticonvulsant Activity in MES Test ED50 ± S.E.", "setting": "[2]; pretreatment time 30 min", "value": "74.5 ± 8.1", "unit": "mg/kg"}, {"measurement": "Anticonvulsant Activity in MES Test ED50 ± S.E.", "setting": "[2]; pretreatment time 60 min", "value": "187.1 ± 18.8", "unit": "mg/kg"}, {"measurement": "Anticonvulsant Activity in MES Test ED50 ± S.E.", "setting": "[2]; pretreatment time 120 min", "value": "281.4 ± 13.6", "unit": "mg/kg"}, {"measurement": "Anticonvulsant Activity in 6 Hz Test ED50 ± SEM", "setting": "[3]; pretreatment time 15 min", "value": "62.6 ± 13.2", "unit": "mg/kg"}, {"measurement": "Anticonvulsant Activity in 6 Hz Test ED50 ± SEM", "setting": "[3]; pretreatment time 30 min", "value": "61.1 ± 9.7", "unit": "mg/kg"}, {"measurement": "Anticonvulsant Activity in 6 Hz Test ED50 ± SEM", "setting": "[3]; pretreatment time 60 min", "value": "169.7 ± 18.5", "unit": "mg/kg"}, {"measurement": "Anticonvulsant Activity in 6 Hz Test ED50 ± SEM", "setting": "[3]; pretreatment time 120 min", "value": "167.6 ± 17.4", "unit": "mg/kg"}, {"measurement": "Neurotoxicity in Chimney or Rotarod (†) Tests in Mice", "setting": "[4]; pretreatment time 15 min", "value": "338.1 ± 12.0"}, {"measurement": "Neurotoxicity in Chimney or Rotarod (†) Tests in Mice", "setting": "[4]; pretreatment time 30 min", "value": "338.1 ± 14.7"}, {"measurement": "Neurotoxicity in Chimney or Rotarod (†) Tests in Mice", "setting": "[4]; pretreatment time 60 min", "value": "333.4 ± 18.6"}, {"measurement": "Neurotoxicity in Chimney or Rotarod (†) Tests in Mice", "setting": "[4]; pretreatment time 120 min", "value": "395.1 ± 25.2"}]}
{"compound": "CCCCCCn1c(Cc2cccc(Cl)c2)n[nH]c1=S", "note": "[TP-427, 5-(3-Chlorobenzyl)-4-hexyl-2,4-dihydro-3H-1,2,4-triazole-3-thione]", "values": [{"measurement": "Papp at 180 min, 20 µg/mL", "setting": "[1]", "value": "477 ± 39.6", "unit": "×10⁻⁶ cm/s"}, {"measurement": "Anticonvulsant Activity in MES Test ED50 ± S.E.", "setting": "[2]; pretreatment time 15 min", "value": "72.1 ± 7.0", "unit": "mg/kg"}, {"measurement": "Anticonvulsant Activity in MES Test ED50 ± S.E.", "setting": "[2]; pretreatment time 30 min", "value": "74.5 ± 8.1", "unit": "mg/kg"}, {"measurement": "Anticonvulsant Activity in MES Test ED50 ± S.E.", "setting": "[2]; pretreatment time 60 min", "value": "83.6 ± 3.8", "unit": "mg/kg"}, {"measurement": "Anticonvulsant Activity in MES Test ED50 ± S.E.", "setting": "[2]; pretreatment time 120 min", "value": "97.9 ± 10.9", "unit": "mg/kg"}, {"measurement": "Anticonvulsant Activity in 6 Hz Test ED50 ± SEM", "setting": "[3]; pretreatment time 15 min", "value": "40.9 ± 6.4", "unit": "mg/kg"}, {"measurement": "Anticonvulsant Activity in 6 Hz Test ED50 ± SEM", "setting": "[3]; pretreatment time 30 min", "value": "46.6 ± 8.2", "unit": "mg/kg"}, {"measurement": "Anticonvulsant Activity in 6 Hz Test ED50 ± SEM", "setting": "[3]; pretreatment time 60 min", "value": "51.6 ± 6.9", "unit": "mg/kg"}, {"measurement": "Anticonvulsant Activity in 6 Hz Test ED50 ± SEM", "setting": "[3]; pretreatment time 120 min", "value": "64.9 ± 5.6", "unit": "mg/kg"}, {"measurement": "Neurotoxicity in Chimney or Rotarod (†) Tests in Mice", "setting": "[4]; pretreatment time 15 min", "value": ">1000"}, {"measurement": "Neurotoxicity in Chimney or Rotarod (†) Tests in Mice", "setting": "[4]; pretreatment time 30 min", "value": ">1000"}, {"measurement": "Neurotoxicity in Chimney or Rotarod (†) Tests in Mice", "setting": "[4]; pretreatment time 60 min", "value": "540.7 ± 20.9"}, {"measurement": "Neurotoxicity in Chimney or Rotarod (†) Tests in Mice", "setting": "[4]; pretreatment time 120 min", "value": "548.5 ± 21.4"}, {"measurement": "IC50", "setting": "[5]", "value": "6.17 ± 1.43", "unit": "µM"}]}
{"compound": "CC(C)Cn1c(Cc2cccc(Cl)c2)n[nH]c1=S", "note": "[TPR-22, 5-(3-Chlorobenzyl)-4-isobutyl-2,4-dihydro-3H-1,2,4-triazole-3-thione]", "values": [{"measurement": "Papp at 180 min, 20 µg/mL", "setting": "[1]", "value": "34.4 ± 8.3", "unit": "×10⁻⁶ cm/s"}, {"measurement": "Anticonvulsant Activity in MES Test ED50 ± S.E.", "setting": "[2]; pretreatment time 15 min", "value": "130.4 ± 17.6", "unit": "mg/kg"}, {"measurement": "Anticonvulsant Activity in MES Test ED50 ± S.E.", "setting": "[2]; pretreatment time 30 min", "value": "130.4 ± 17.6", "unit": "mg/kg"}, {"measurement": "Anticonvulsant Activity in MES Test ED50 ± S.E.", "setting": "[2]; pretreatment time 60 min", "value": "159.9 ± 21.9", "unit": "mg/kg"}, {"measurement": "Anticonvulsant Activity in MES Test ED50 ± S.E.", "setting": "[2]; pretreatment time 120 min", "value": "195.7 ± 21.5", "unit": "mg/kg"}, {"measurement": "Neurotoxicity in Chimney or Rotarod (†) Tests in Mice", "setting": "[6]; pretreatment time 15 min", "value": "306 ± 19.8", "unit": "mg/kg"}, {"measurement": "Neurotoxicity in Chimney or Rotarod (†) Tests in Mice", "setting": "[6]; pretreatment time 30 min", "value": "314 ± 22", "unit": "mg/kg"}, {"measurement": "Neurotoxicity in Chimney or Rotarod (†) Tests in Mice", "setting": "[6]; pretreatment time 60 min", "value": "326 ± 23.1", "unit": "mg/kg"}, {"measurement": "Neurotoxicity in Chimney or Rotarod (†) Tests in Mice", "setting": "[6]; pretreatment time 120 min", "value": "330 ± 24.2", "unit": "mg/kg"}, {"measurement": "IC50", "setting": "[5]", "value": "18.9 ± 1.2", "unit": "µM"}]}
{"compound": "CCCC(CCC)C(=O)O", "note": "[Valproic acid, reference compound]", "values": [{"measurement": "Papp at 180 min, 20 µg/mL", "setting": "[1]", "value": "15.4 ± 4.71", "unit": "×10⁻⁶ cm/s"}]}
